Several values for one entry are separate records, joined by “and”; a condition that tells them apart may be missing. Equal values may be shown once. Read-outs that look alike come from different tables or passages of the source.
Tests used:
Assay type in all cases: cell-based
[1] = system: store-operated Ca^2+ entry in PLP-B lymphocytes; assay: Store-operated Ca2+ entry after thapsigargin depletion of ER Ca2+ stores in PLP-B lymphocytes; conditions: for Effect on amplitude of SOCE peak / inhibition at 10 µM / inhibition at 50 µM / inhibition at 100 µM / inhibition at 0.1 µM / inhibition at 1 µM: PLP-B lymphocytes, % of inhibition (−) or activation; for IC50: SOCE in PLP-B lymphocytes, average of three assays, ±0.5 μM
Method: (§1) The effects of the molecules developed were tested on PLP-B lymphocytes. Store-operated Ca^2+ entry was induced by depletion of Endoplasmic Reticulum Ca^2+ stores (ER Ca^2+ stores) with thapsigargin (Tg) in a Ca^2+-free medium and measured following the addition of 1.8 mM of CaCl2) in the extracellular medium. The results are compared to the results obtained for known SOCE inhibitors SKF-96365, GSK-7975A, Synta 66.

[2] = system: store-operated Ca^2+ entry in HEK 293; assay: Store-operated Ca2+ entry in HEK 293 cell line; conditions: for Effect on amplitude of SOCE peak: % of inhibition (−) or activation
Method: as §1
(§2) Then, effects of the molecule that gave the best results in this test (i.e., molecule 6αa) were assessed in two cancer cell lines, namely: HEK 293 and HEK 651 HS1 tumor cell lines.

[3] = system: store-operated Ca^2+ entry in HEK 651 HS1; assay: Store-operated Ca2+ entry in HEK 651 HS1 cell line; conditions: for Effect on amplitude of SOCE peak: % of inhibition (−) or activation; for IC50: average of three assays, ±0.5 μM
Method: as §1, §2

SOCE in JOK B cells = assay: Intracellular calcium levels / SOCE in JOK B cells (Fura-2AM, FlexStation 3); conditions: for amplitude of SOCE: 5 and 20 μM, compared to control, irrespective of incubation time (5, 15, 30 minutes, 1 hour)
Method: Intracellular calcium levels were monitored at 37° C. using the FlexStation 3™ (Molecular Devices, Berkshire, UK), a fluorescence plate reader measuring time-resolved intracellular Ca^2+ concentration in a 96-well format with cells loaded with the dual-wavelength fluorescent calcium-sensitive dye Fura-2AM.
Intracellular Ca^2+ stores were depleted with 2 μM Thapsigargin (an inhibitor of ER SERCA pumps) under Ca^2+-free conditions to determine the magnitude of intracellular Ca^2+ release. Next, the cells were returned to Ca^2+-containing Hepes-buffered solution to measure SOCE. The magnitude of SOCE was estimated as the maximal values of normalized fluorescence ratio following Ca^2+ re-addition.

JOK cells [4] = assay: JOK cell viability and apoptosis assays (LIVE/DEAD, Annexin V-FITC/PI); conditions: JOK B cells (FIG. 7); 5 or 20 μM; treated for 48 hours
Method: Cell Viability Assays. JOK cells were treated with test compounds (GSK-7975-A, SKF-93365 and 6αa) or solvent for 48 hours. JOK cells viability was then assessed using LIVE/DEAD cell viability assays kit (Abcam). Differentially labeled live and dead cells with fluorescent dyes are analyzed by flow cytometry.
Apoptosis Assay. Apoptosis of JOK cells were determined by Annexin V-FITC/PI staining (Biolegend) using flow cytometry. The percentage of annexin V-FITC and propidium iodide-[…] cells were assessed using Kaluza 1.3.

HUVEC cells = assay: HUVEC cell death (Annexin/Propidium Iodide, flow cytometry); conditions: HUVEC (FIG. 8); 5 or 20 μM; treated for 48 hours
Method: FIG. 8. In vitro Effects of 6αa, GSK-7975-A and SKF-93365 on HUVEC Cell Death. […] Cell death was analyzed by flow cytometry following Annexin/Propidium Iodide labeling. Percentages of living cells, necrotic cells and apoptotic cells submitted to GSK-7975A (A), SKF-93365 (B), and 6αa (DAD 3-473) (C) treatment were normalized to the DMSO treatment conditions. Histograms present the amounts of apoptotic cells (annexin/PI positive cells) detected in each experimental condition after treatment with GSK-7975A (D), SKF-93365 (E), and 6αa (DAD 3-473) (F). Data are expressed as mean±SEM of n observations (n=2). Data are analyzed with non parametric Mann Withney analysis, *P<0.05, **P<0.01 and ***P<0.001.

JOK cells [5] = assay: Migration of JOK cells through HUVEC in transwells; conditions: 5 or 20 μM
Method: Migration Protocol. Migration chambers (transwells) (Transwell 5.0 m polycarbonate membrane Costar) were coated overnight (37° C., 5% CO2) with 100 μL of fibronectine solution containing BSA (1 mg/ml) and LHC Basal Medium. Primary HUmbilical Vein Endothelial Cells (HUVEC) were seeded in each transwell (100 000/well) and cultured for 24 hours (37° C., 5% CO2). To evaluate B cell migration, JOK cells were added (300 000/well) to each transwell upper chamber containing RPMI 1640 medium (BioWest) containing 0.5% BSA and SDF1 (200 ng/ml) was added in the bottom chamber. Cells were cultures in the presence or absence of a test compound (GSK-7975-A, SKF-93365 and 6αa) or solvent. After 24 hours (37° C., 5% CO2), migrated cells were collected in the bottom chambers and counted by flow cytometry. The percentages of migration were calculated for each experimental collection.

PANC-1 cells = assay: PANC-1 cytotoxicity (Cell Tox green assay); conditions: 5 and 20 μM, 24 hours
Method: Analysis of Cell Proliferation. For PANC-1 cell proliferation and cell cytotoxicity measurements, […] were seeded in 96 well-plates in 100 μL of DMEM medium. Cells were incubated for 24 hours at 37° C. with 3 different SOCE inhibitors (GSK-7975-A, SKF-93365 and 6αa) at 2 different concentrations (5 and 20 μM) compared to DMSO and untreated cells. Cell proliferation was evaluated using the Cell Titer kit proliferation assay (Promega). Cytotoxicity was evaluated using the Cell Tox green cytotoxicity assay (Promega). All the kits were used following manufacturer recommendations and using a plate reader.

[6] = Lymphocyte, 10 μM, DMSO control 100%, read-out: Effect on amplitude of SOCE Peak
[7] = Lymphocyte, 10 μM, thapsigargin (Tg) peak, read-out: Effect on amplitude of Tg Peak
[8] = Lymphocyte, 50 μM, DMSO control 100%, read-out: Effect on amplitude of SOCE Peak
[9] = Lymphocyte, 50 μM, thapsigargin (Tg) peak, read-out: Effect on amplitude of Tg Peak
[10] = Lymphocyte, 100 μM, DMSO control 100%, read-out: Effect on amplitude of SOCE Peak
[11] = Lymphocyte, 100 μM, thapsigargin (Tg) peak, read-out: Effect on amplitude of Tg Peak

O=C(Nc1ccn(Cc2ccc(O)cc2C(F)(F)F)n1)c1c(F)cccc1F [GSK-7975A]
Effect on amplitude of SOCE peak ([1]; 1 μM, DMSO control 100%): 19.0% and 9.0%
Effect on amplitude of SOCE peak ([1]; 10 μM, DMSO control 100%): −9.0%
Effect on amplitude of SOCE peak ([1]; 50 μM, DMSO control 100%): −88.0%
Effect on amplitude of SOCE peak ([1]; 100 μM, DMSO control 100%): −94.0%
IC50 [1]: 2.3 µM
Effect on amplitude of SOCE peak ([2]; 0.1 μM): −7%
Effect on amplitude of SOCE peak ([2]; 1 μM): −31%
Effect on amplitude of SOCE peak ([2]; 5 μM): −66%
Effect on amplitude of SOCE peak ([2]; 10 μM): −75%
Effect on amplitude of SOCE peak ([2]; 50 μM): −87%
IC50 ([2]; average of three assays, ±0.5 μM): 2 µM
Effect on amplitude of SOCE peak ([3]; 0.1 μM): 0%
Effect on amplitude of SOCE peak ([3]; 1 μM): −2%
Effect on amplitude of SOCE peak ([3]; 5 μM): −19%
Effect on amplitude of SOCE peak ([3]; 10 μM): −22%
Effect on amplitude of SOCE peak ([3]; 50 μM): −72%
IC50 [3]: 44 µM
amplitude of Ca2+ release from the endoplasmic stores (SOCE in JOK B cells): not found to be significantly affected
amplitude of SOCE (SOCE in JOK B cells): significantly reduces
apoptosis or necrosis of cells (JOK cells [4]): do not induce apoptosis or necrosis
apoptosis or necrosis of cells (HUVEC cells): do not induce apoptosis or necrosis
transendothelial migration through HUVEC of JOK cells (JOK cells [5]): does not
cytotoxicity in cancer PANC-1 cells (PANC-1 cells): no cytotoxic effects

CS(=O)(=O)Oc1ccc(Cn2cnc3ccccc32)cc1 [8αa, 4-((1H-Benzo[d]imidazol-1-yl)methyl)phenyl methanesulfonate]
inhibition at 10 µM [1, 6]: 20%
inhibition at 10 µM [1, 7]: -1%
inhibition at 50 µM [1, 8]: 9%
inhibition at 50 µM [1, 9]: -5%
inhibition at 100 µM [1, 10]: 23%
inhibition at 100 µM [1, 11]: 7%

c1ncn(CCc2ccc(OC3CCCCO3)cc2)n1 (centres unmarked) [11βa, 1-(4-((Tetrahydro-2H-pyran-2-yl)oxy)phenethyl)-1H-1,2,4-triazole]
inhibition at 10 µM [1, 6]: 32%
inhibition at 10 µM [1, 7]: 20%
inhibition at 50 µM [1, 8]: 31%
inhibition at 50 µM [1, 9]: 17%
inhibition at 100 µM [1, 10]: 16%
inhibition at 100 µM [1, 11]: 3%

COc1ccc(COc2ccc(CCn3cnc(C(F)(F)F)n3)cc2)cc1 [6βg DAD 3.472]
inhibition at 50 µM [1, 8]: 5%
inhibition at 50 µM [1, 9]: 18%
inhibition at 100 µM [1, 10]: 37%
inhibition at 100 µM [1, 11]: 25%

COc1ccc(CCCOC(Cn2ccnc2)c2ccc(OC)cc2)cc1 (centres unmarked) [SKF-96365]
inhibition at 0.1 µM ([1]; Lymphocyte, DMSO control 100%, read-out: Effect on amplitude of SOCE Peak): 3.4%
inhibition at 0.1 µM ([1]; Lymphocyte, thapsigargin (Tg) peak, read-out: Effect on amplitude of Tg Peak): -2.4%
inhibition at 1 µM ([1]; Lymphocyte, 1 μM, DMSO control 100%, read-out: Effect on amplitude of SOCE Peak): 26.4%
inhibition at 1 µM ([1]; Lymphocyte, 1 μM, thapsigargin (Tg) peak, read-out: Effect on amplitude of Tg Peak): -6.5%
inhibition at 10 µM [1, 6]: 15.4%
inhibition at 10 µM [1, 7]: 6.6%
inhibition at 50 µM [1, 8]: 44.3%
inhibition at 50 µM [1, 9]: 11.1%
inhibition at 100 µM [1, 10]: 58.7%
inhibition at 100 µM [1, 11]: 8%
IC50 ([1]; Lymphocyte): 60 µM
Effect on amplitude of SOCE peak ([2]; 0.1 μM): −25%
Effect on amplitude of SOCE peak ([2]; 1 μM): −21%
Effect on amplitude of SOCE peak ([2]; 5 μM): −23%
Effect on amplitude of SOCE peak ([2]; 10 μM): −4%
Effect on amplitude of SOCE peak ([2]; 50 μM): −33%
Effect on amplitude of SOCE peak ([3]; 0.1 μM): −8%
Effect on amplitude of SOCE peak ([3]; 1 μM): −6%
Effect on amplitude of SOCE peak ([3]; 5 μM): −9%
Effect on amplitude of SOCE peak ([3]; 10 μM): −17%
Effect on amplitude of SOCE peak ([3]; 50 μM): −63%
IC50 [3]: 40 µM
amplitude of Ca2+ release from the endoplasmic stores (SOCE in JOK B cells): not found to be significantly affected
amplitude of SOCE (SOCE in JOK B cells): significantly reduces
apoptosis or necrosis of cells (JOK cells [4]): do not induce apoptosis or necrosis
apoptosis or necrosis of cells (HUVEC cells): do not induce apoptosis or necrosis
cytotoxicity in cancer PANC-1 cells (PANC-1 cells): no cytotoxic effects

c1ccc(CCOc2ccc(CCn3cnc4ccccc43)cc2)cc1 [6αab DAD 4-553]
inhibition at 50 µM [1, 8]: 2%
inhibition at 50 µM [1, 9]: 1%
inhibition at 100 µM [1, 10]: 46%
inhibition at 100 µM [1, 11]: 8%

COc1ccc(CCCOc2ccc(CCn3cncn3)cc2)cc1 [Compound 6βf]
Effect on amplitude of SOCE peak ([1]; 100 μM, DMSO control 100%): −10.0%
inhibition at 10 µM [1, 7]: 13%
inhibition at 50 µM [1, 9]: 18%

COc1ccc(CCCOc2ccc(CCn3nc(C(F)(F)F)cc3C(F)(F)F)cc2)cc1 [6βw DAD 2.335]
inhibition at 10 µM [1, 6]: 4.6%
inhibition at 50 µM [1, 8]: -0.1%
inhibition at 100 µM [1, 10]: 11.8%

c1ccc(CCCOc2ccc(CCn3cnc4ccccc43)cc2)cc1 [6αm DAD 3-475]
inhibition at 50 µM [1, 8]: 4%
inhibition at 50 µM [1, 9]: -7%
inhibition at 100 µM [1, 10]: 77%
inhibition at 100 µM [1, 11]: -7%

COc1ccc(COc2ccc(CCn3cccn3)cc2)cc1 [6βm DAD 2.306]
inhibition at 10 µM [1, 6]: -2%
inhibition at 50 µM [1, 8]: -0.5%
inhibition at 100 µM [1, 10]: -16.8%

— patent US12686664B2, “SOCE inhibitors and therapeutic uses thereof” (Institut National de la Santé et de la Recherche Médicale …, priority 2020, dated 2026)
